Legend:
Type in all cases: cell-based, human
[1] = test system: early mesoderm progenitors; test: 8-factor HD-DoE experiments optimized for maximum GATA2 expression (qPCR, partial least squares models)
[2] = test system: early mesoderm progenitors; test: Factor criticality / dynamic profile analysis of gene expression on removal of a finalized effector; set-up: expression level of GATA2 / expression level of TAL1 / expression level of CD44 / expression level of KDR / expression level of CD34 / expression level of CD31: unit not given here
[3] = test system: early mesoderm progenitors; test: 8-factor HD-DoE experiments optimized for maximum GATA2 expression (qPCR, partial least squares models); conditions: for factor contribution (maximum expression of GATA2): first model, FIG. 2, factors Forskolin, VEGF, FGF2, Albumax, SUN1162, Hydrocortisone, SB341542, Resveratrol, 3 days after stage 1
Text: The early mesoderm progenitors were used for further differentiation along the endothelial lineage using a High-Dimensional Design of Experiments (HD-DoE) approach to simultaneously test multiple process inputs (e.g., small molecule agonists or antagonists) on output responses, such as gene expression. Based on predicted conditions that maximize expression of hemogenic endothelial enriched genes such as CD31, CD34, CD143, CD309, GATA2, Fill and RUNX1, vWF, a complex recipe was developed for generating differentiated hemogenic endothelial cells from the early mesoderm progenitors, composed of 8 agents as shown below in Table 1:
First, undifferentiated iPSC were grown for 48 h in CDM2 media containing 6 uM CHIR99021 (referred to herein as stage 1). Then stage 2 media was engineered. The basis of this was an 8-factor HD-DoE experiment with focus on differentiation of cells toward the hemogenic endothelial lineage for an additional 3 days after termination of stage 1 treatment. To test the effectors, 48 different combinations of effectors generated using Design-of-Experiments compression through D-optimality were robotically prepared. The effector combinations were prepared in a basal media and were subsequently added to the cells, which were then allowed to differentiate. Three days later, RNA extraction was performed, and gene expression was obtained using quantitative PCR analysis. The data were normalized and modeled using partial least squares regression analysis to the effector design, resulting in the generation of gene-specific models, which after model tuning for maximal Q2 predictive power, provided explanation of the effectors ability to control the expression of individual genes, combinatorically, and individually. Solutions within the tested space could then be explored to address desirability. For stage 2, conditions were created inducing the expression of GATA2, a transcription factor identified as a master regulator of hematopoiesis. GATA2 promotes the generation of HECs and facilitates endothelial-to-hematopoietic transition (EHT). GATA2 also suppresses cardiac differentiation at the mesoderm stage, directing cells to a hematopoietic fate. Optimizing for maximal expression of GATA2 led to a robust solution. […] In this model, high levels of KDR, important receptor for VEGF signaling, were observed. […] This model was derived from initial testing of eight factors including: Forskolin, VEGF, FGF2, Albumax, SUN1162, Hydrocortisone, SB341542, and Resveratrol. […] Factors with low contribution were excluded.

[4] = second model, FIG. 3, factors CHIR, VEGF, FGF2, TTNBP, AGN194310, Y27632, Thymosin-β4, heparin
[5] = model FIG. 10 (XAV939, VEGF, FGF2, L-ascorbic acid kept), factor present
[6] = model FIG. 10, named factor removed
[7] = fourth model, FIG. 5, factors VEGF, FGF2, Sphingosine 1 phosphate, V11298, Pyrintegrin, Erythropoietin, L-ascorbic acid, XAV939
[8] = model FIG. 7 (VEGF, Forskolin, FGF2), factor present
[9] = model FIG. 7, named factor removed, others kept
[10] = model FIG. 8, named factor removed, others kept
[11] = model FIG. 9, named factor removed

In the case of `C/C(=C\c1ccc(C(=O)O)cc1)c1ccc2c(c1)C(C)(C)CCC2(C)C` [TTNBP], the “factor contribution (maximum expression of GATA2)” value [1, 4] is reported as “relatively low factor contribution”.

With `Oc1nc(-c2ccc(C(F)(F)F)cc2)nc2c1CSCC2` [XAV939, reference compound] the “expression level of GATA2” value [2, 5] was 992, the “expression level of CD31” value ([2]; model FIG. 10, factor present) was 6619 and the “expression level of CD34” value ([2]; model FIG. 10, factor present) was 7050. For the same compound, the “expression level of CD44” value ([2]; model FIG. 10, factor present) was 838, the “expression level of FLI1 (Fill [sic])” value ([2]; model FIG. 10, factor present) was 13094 and the “expression level of KDR” value ([2]; model FIG. 10, factor present) was 36067. For the same compound, the “expression level of TAL1” value ([2]; model FIG. 10, factor present) was 1265, the “expression level of CD31” value [2, 6] was 2181 and the “expression level of CD34” value [2, 6] was 5740. The “expression level of CD44” value [2, 6] was 799, the “expression level of FLI1 (Fill [sic])” value [2, 6] was 7237 and the “expression level of GATA2” value [2, 6] was 560. For the same compound, the “expression level of KDR” value [2, 6] was 31179, the “expression level of TAL1” value [2, 6] was 982 and the “factor contribution (maximum expression of GATA2)” value [1, 7] was 16.

For `C[C@@H](N)[C@H]1CC[C@H](C(=O)Nc2ccncc2)CC1` [Y27632], the “factor contribution (maximum expression of GATA2)” value [1, 4] was “relatively low factor contribution”.

With “FGF2: FGFR agonist (e.g., recombinant human FGF2)” the “expression level of GATA2” value [2, 8] was 583, the “expression level of CD31” value ([2]; model FIG. 7, factor present) was 879 and the “expression level of CD44” value ([2]; model FIG. 7, factor present) was 576. The “expression level of FLI1 (Fill [sic])” value ([2]; model FIG. 7, factor present) was 3970, the “expression level of KDR” value ([2]; model FIG. 7, factor present) was 33760 and the “expression level of CD31” value [2, 9] was 505. For the same compound, the “expression level of CD44” value [2, 9] was 274, the “expression level of FLI1 (Fill [sic])” value [2, 9] was 3374 and the “expression level of GATA2” value [2, 9] was 458. For the same compound, the “expression level of KDR” value [2, 9] was 23868, the “expression level of CD31” value ([2]; model FIG. 8, factor present) was 807 and the “expression level of CD44” value ([2]; model FIG. 8, factor present) was 748. For the same compound, the “expression level of KDR” value ([2]; model FIG. 8, factor present) was 40630, the “expression level of CD31” value [2, 10] was 677 and the “expression level of CD44” value [2, 10] was 626. For the same compound, the “expression level of KDR” value [2, 10] was 29902, the “expression level of GATA2” value [2, 5] was 992 and the “expression level of CD31” value ([2]; model FIG. 10, factor present) was 6619. The “expression level of CD34” value ([2]; model FIG. 10, factor present) was 7050, the “expression level of CD44” value ([2]; model FIG. 10, factor present) was 838 and the “expression level of FLI1 (Fill [sic])” value ([2]; model FIG. 10, factor present) was 13094. For the same compound, the “expression level of KDR” value ([2]; model FIG. 10, factor present) was 36067, the “expression level of TAL1” value ([2]; model FIG. 10, factor present) was 1265 and the “expression level of CD31” value [2, 6] was 2002. The “expression level of CD34” value [2, 6] was 6550, the “expression level of CD44” value [2, 6] was 466 and the “expression level of FLI1 (Fill [sic])” value [2, 6] was 5406. The “expression level of GATA2” value [2, 6] was 397, the “expression level of KDR” value [2, 6] was 22308 and the “expression level of TAL1” value [2, 6] was 866. For the same compound, the “factor contribution in 2 of 3 models” value ([3]; across models) was greater than 16, the “factor contribution (maximum expression of GATA2)” value [3] was 17 and the “factor contribution (maximum expression of GATA2)” value [1, 7] was 22. The “factor contribution (maximum expression of GATA2)” value [1, 4] was “low factor contribution”.

In the case of “Thymosin-β4: Actin binding protein (SDKPDMAEIEKFDKSKLKKTETQEKNPLPSKETIEQEKQAGES; UniProt P62328 2-44, looked up)”, the “expression level of GATA2” value ([2]; model FIG. 8 (VEGF, FGF2, Thymosin-β4), factor present) is reported as 633, the “expression level of CD44” value ([2]; model FIG. 8, factor present) is reported as 748 and the “expression level of KDR” value ([2]; model FIG. 8, factor present) is reported as 40660. For the same compound, the “expression level of CD44” value [2, 10] was 626, the “expression level of GATA2” value [2, 10] was 437 and the “expression level of KDR” value [2, 10] was 37788. For the same compound, the “factor contribution (maximum expression of GATA2)” value [1, 4] was 16.

With VEGF the “expression level of GATA2” value [2, 8] was 583, the “expression level of CD31” value ([2]; model FIG. 7, factor present) was 879 and the “expression level of CD34” value ([2]; model FIG. 7, factor present) was 2350. For the same compound, the “expression level of CD44” value ([2]; model FIG. 7, factor present) was 578, the “expression level of FLI1 (Fill [sic])” value ([2]; model FIG. 7, factor present) was 3971 and the “expression level of KDR” value ([2]; model FIG. 7, factor present) was 33751. For the same compound, the “expression level of TAL1” value ([2]; model FIG. 7, factor present) was 370, the “expression level of CD31” value [2, 9] was 2 and the “expression level of CD34” value [2, 9] was 150. The “expression level of CD44” value [2, 9] was 349, the “expression level of FLI1 (Fill [sic])” value [2, 9] was 241 and the “expression level of GATA2” value [2, 9] was 236. For the same compound, the “expression level of KDR” value [2, 9] was 16856, the “expression level of TAL1” value [2, 9] was 18 and the “effect on expression of hemogenic endothelial genes analyzed (in words)” value (shortened to “effect on expression”) ([2]; model FIG. 8) was “critical for increasing the expression of all hemogenic endothelial genes analyzed”. For the same compound, the “expression level of CD31” value ([2]; model FIG. 9, factor present) was 869, the “expression level of CD34” value ([2]; model FIG. 9, factor present) was 2341 and the “expression level of FLI1 (Fill [sic])” value ([2]; model FIG. 9, factor present) was 2292. For the same compound, the “expression level of KDR” value ([2]; model FIG. 9, factor present) was 7518, the “expression level of CD31” value [2, 11] was 262 and the “expression level of CD34” value [2, 11] was 868. The “expression level of FLI1 (Fill [sic])” value [2, 11] was 974, the “expression level of KDR” value [2, 11] was 6209 and the “effect on expression” value ([2]; model FIG. 10) was “critical for expression of all hemogenic endothelial genes analyzed”. For the same compound, the “effect on expression” value ([2]; model FIG. 11) was “critical for expression of all hemogenic endothelial genes analyzed”, the “factor contribution (maximum expression of GATA2)” value [3] was 46 and the “effect towards GATA2 induction in 4 out of 5 models” value ([1]; across models) was “strong positive effect towards GATA2 induction”. The “factor contribution (maximum expression of GATA2)” value ([1]; fifth model, FIG. 6, factors VPA, SCF, BMP4, EFG, FLT3L, Arginine, Retinoic Acid, VEGF) was 22, the “factor contribution (maximum expression of GATA2)” value [1, 7] was 22 and the “factor contribution (maximum expression of GATA2)” value [1, 4] was 25.

In the case of heparin, the “factor contribution (maximum expression of GATA2)” value [1, 4] is reported as “relatively low factor contribution”.

Source: US20240067932A1, “METHODS AND COMPOSITIONS FOR GENERATING HEMOGENIC ENDOTHELIAL CELLS FROM PLURIPOTENT STEM CELLS” (Trailhead Biosystems Inc., priority 2022, published 2024)
